From patent US20030153731A1, “Endothelial cell-leukocyte adhesion molecules (ELAMs) and molecules involved in leukocyte adhesion (MILAs)” (priority 1989, published 2003)
Each block holds one molecule with its values, some of them ahead of it.

Key:
[1] = target: T1, 1,3-fucosyl transferase in extracts from CHO cells transfected with clone 7.2 (Homo sapiens, UniProt P22083); assay: fucosyl transferase enzyme assay: linking 14C-fucose to acceptor molecules; type: biochemical; details: for Efficiency of Fucosylation: enzyme freshly produced from transfected CHO cells, 1 hour at 37° C; for linking of fucose to acceptor by the induced enzyme: extract of CHO cells transfected with clone 7.2
T1 construct: expressed in transfected cells; host or cells: CHO cells transfected with clone 7.2; Triton X-100 lysate
T1 sequence (P22083 1-405 isoform P22083-2): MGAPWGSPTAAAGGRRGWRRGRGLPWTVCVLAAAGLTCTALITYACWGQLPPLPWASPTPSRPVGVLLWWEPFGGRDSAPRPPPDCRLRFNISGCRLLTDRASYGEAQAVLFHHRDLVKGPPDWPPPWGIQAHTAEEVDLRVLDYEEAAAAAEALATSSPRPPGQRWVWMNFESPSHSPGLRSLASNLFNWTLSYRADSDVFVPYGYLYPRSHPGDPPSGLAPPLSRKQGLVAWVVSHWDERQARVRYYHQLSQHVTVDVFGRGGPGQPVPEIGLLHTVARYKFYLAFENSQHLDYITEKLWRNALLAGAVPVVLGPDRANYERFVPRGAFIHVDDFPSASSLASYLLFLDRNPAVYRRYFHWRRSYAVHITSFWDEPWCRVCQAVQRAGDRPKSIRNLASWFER
Experimental: The assays tested the ability of the enzyme to link radioactively labelled fucose to an acceptor molecule. We performed the assays as follows.
We prepared assay samples containing 10 μl enzyme, 8 μl cocktail and 2 μl 10×acceptor. We prepared the enzyme by isolating about 1.5 million CHO cells transfected with clone 7.2 and lysing them by sonication for 15 seconds in 150 μl ice-cold 1% Triton X-100 in water. The cocktail contained 75 μM ^14C-GDP fucose, 100 mM ATP, 500 mM L-fucose, 1 M MnCl2 and 1 M cacodylate at pH 6.2. 10×acceptor contained, variously, 200 mM LacNAc, Lac-N-biose, or lactose, 250 mM phenyl-β-D-galactoside, or 50 mM 2′-fucosyllactose. We incubated the assay samples for 1 hour at 37° C. We stopped the reaction by addition of 20 μl ethanol. We diluted the sample with 560 μl water and centrifuged in an EPPENDORF centrifuge for 5 minutes at high speed.
We had prepared a DOWEX 1×2-400 column (Sigma Chemical Co.) to separate the unconverted ^14C fucose-GDP from the converted. We loaded the matrix into a large column and washed it with 10 volumes of iN NaOH, followed by 5 volumes of water, followed by 10 volumes of 5% concentrated formic acid. Then we repeated this wash cycle. We used this material to create small columns of 0.4 ml. We prepared the small columns for use by washing them with 10 volumes of water.
We loaded 200 μl of the sample onto the small column, collected the eluate, rinsed with 2 ml water and collected it into the eluate. We determined the radioactivity of this eluate by scintillation counting.

[2] = system: HL-60 cells; RAMOS cells; assay: cell binding to rsELAM1-coated plates; type: cell-based, human
Experimental: To a 6 cm diameter Petri dish of bacteriologic plastic (e.g., Falcon 110070) we added 2.5 ml of 50 mM Tris buffer, pH 9.5. To this we added 10 μg of pure rsELAM1. We incubated the plate for 60 minutes at room temperature to allow the rsELAM1 to bind to the plate. Then we aspirated the medium and replaced it with PBS containing 10 mg/ml bovine serum albumin. We incubated the plates overnight at 40 in this solution to block remaining protein binding sites on the plates. We warmed the plates to room temperature, washed them with medium containing 10% fetal calf serum, and incubated them with 2 ml of cells (2×10^6 ml^−1) for 20 minutes. We aspirated the medium and washed the plates twice with 3 ml each of medium (RPMI 1640 with 10% serum). Then we examined the plates by microscopy.
A second assay would test the ability of a small molecule to inhibit cell binding to ELAM itself. We have developed such an assay with rsELAM1 which works in 96 well microtiter plates. These plates, made of bacteriologic plastic (e.g. Linbro/Titertek #76-232-050), are incubated with 0.5 μg per well of rsELAM1 in 50 μl of 15 mM sodium carbonate/35 mM sodium bicarbonate, pH 9.2, overnight at 40. The plates are then blocked for one hour at room temperature with PBS containing 10 mg/ml of bovine serum albumin, and then adhesion assays performed as described in Example VIII using, e.g., HL-60 cells, 2×10^6/ml, 50 μl per well. Under these conditions HL-60 cells bind well to rsELAM1, providing a convenient microassay for screening. One would identify inhibitors by their ability to inhibit HL-60 binding to the plate. Alternatively, one could use an ELAM ligand in this assay, using as the probe a cell line that stably expresses an ELAM.

Molecule: CC(=O)N[C@H]1C(O)O[C@H](CO)[C@@H](O[C@@H]2O[C@H](CO)[C@H](O)[C@H](O)[C@H]2O)[C@@H]1O (some centres unmarked) [LacNAc]
Efficiency of Fucosylation [1]: 1110 picomoles/mg Total protein · h | linking of fucose to acceptor by the induced enzyme [1]: linked fucose

Molecule: OC[C@H]1O[C@@H](Oc2ccccc2)[C@H](O)[C@@H](O)[C@H]1O [PhβDgal, phenyl-β-D-galactoside]
Efficiency of Fucosylation [1]: Not detectable | linking of fucose to acceptor by the induced enzyme [1]: did not link fucose

B1: rsELAM1: portion of the extracellular domain of ELAM1 encoded by nucleotides 141 to 1790 of FIG. 1 (protein, UniProt P16581 22-556, looked up)
extracellular domain: WSYNTSTEAMTYDEASAYCQQRYTHLVAIQNKEEIEYLNSILSYSPSYYWIGIRKVNNVWVWVGTQKPLTEEAKNWAPGEPNNRQKDEDCVEIYIKREKDVGMWNDERCSKKKLALCYTAACTNTSCSGHGECVETINNYTCKCDPGFSGLKCEQIVNCTALESPEHGSLVCSHPLGNFSYNSSCSISCDRGYLPSSMETMQCMSSGEWSAPIPACNVVECDAVTNPANGFVECFQNPGSFPWNTTCTFDCEEGFELMGAQSLQCTSSGNWDNEKPTCKAVTCRAVRQPQNGSVRCSHSPAGEFTFKSSCNFTCEEGFMLQGPAQVECTTQGQWTQQIPVCEAFQCTALSNPERGYMNCLPSASGSFRYGSSCEFSCEQGFVLKGSKRLQCGPTGEWDNEKPTCEAVRCDAVHQPPKGLVRCAHSPIGEFTYKSSCAFSCEEGFELHGSTQLECTSQGQWTEEVPSCQVVKCSSLAVPGKINMSCSGEPVFGTVCKFACPEGWTLNGSAARTCGATGHWSGLLPTCEAPTESNIP
modifications: extracellular domain
binding of HL-60 cells to rsELAM1 in 96 well microtiter plates ([2]; 0.5 μg per well rsELAM1, HL-60 2×10^6/ml, 50 μl per well): bind well | binding of HL-60 cells to rsELAM1-coated plates ([2]; 6 cm Petri dish, 10 μg rsELAM1): bind to rsELAM1-coated plates | binding of RAMOS cells to rsELAM1-coated plates ([2]; 6 cm Petri dish, 10 μg rsELAM1): do not bind to these plates

Second part, the molecule after the results:

Efficiency of Fucosylation [1]: 290 picomoles/mg Total protein · h | linking of fucose to acceptor by the induced enzyme [1]: linked fucose
Molecule: OC[C@H]1O[C@@H](O[C@H]2[C@H](O)[C@@H](O)C(O)O[C@@H]2CO)[C@H](O)[C@@H](O)[C@H]1O (some centres unmarked) [Lactose, lactose]

Efficiency of Fucosylation [1]: 76 picomoles/mg Total protein · h | linking of fucose to acceptor by the induced enzyme [1]: did not link fucose
Molecule: CC(=O)N[C@@H]1[C@@H](O[C@@H]2O[C@H](CO)[C@H](O)[C@H](O)[C@H]2O)[C@H](O)[C@@H](CO)O[C@@H]1O [Lac-N-Biose, Lac-N-biose]
